Marks after values point to notes of the source that are not given here.
Tests used:
[1] = test system: HepG-2 human hepatocellular carcinoma cells; experiment: MTT cytotoxicity on HepG-2; assay type: cell-based; details: Homo sapiens, HepG2, 48 h, mean ± standard deviation, n = 3, – = Not detected
Protocol: (§1) The human leukemia monocyte cell line (THP-1), human lung adenocarcinoma cell line (A549), human breast cancer cells (MDA-MB231), human prostate adenocarcinoma cells (PC3), human malignant glioma cell line (U87MG), human cervical gland carcinoma cells (HeLa), human hepatocellular carcinoma cells (HEP-G2) and normal human lung fibroblast cells (CCD-34-LU) as a healthy cell line in our stock used in this study were purchased from American Type Culture Collection (ATCC). THP-1 cells were cultured in Roswell Park Memorial Institute (RPMI 1640) medium and MDA-MB231, PC3, U87 MG, HeLa, HEP-G2, and CCD-34-LU cells cultivated in Dulbecco’s Modified Eagle’s Medium/Nutrient Mixture F-12 (DMEM/F12) (Gibco, USA) medium supplemented with 10% FBS (Gibco, USA), 100U/mL of penicillin 100 µg/mL of streptomycin (Gibco, USA), and 2 mM L-glutamine (Gibco, USA).
(§2) Cytotoxicity of saponins (1–4) and their prosapogenins (2a–4a) were tested against A549, MDA-MB-231, PC-3, U87MG, HeLa, HepG-2 cancer cells and CCD34-Lu healthy cell line using MTT [3-(4,5-dimethylthiazole-2-yl)-2,5-diphenyltetrazolium bromide)] assay (Acros Organics, New Jersey, USA)[11], [23]. For this purpose, 1 × 10^5 cells/mL of all the cell lines were seeded in 96-well plates (Corning, USA) and cultivated in the at 37 °C overnight. After the incubation, the cells were incubated with different concentrations of saponins (50, 5, and 0.5 µg/mL), and doxorubicin (Sigma, USA) (20, 2, and 0.2 µg/mL) for 48 h at 37 °C. Then, the MTT was added as 20 μL (from the stock concentration of 2.5 mg/mL) to all wells and further incubated for 4 h at 37 °C. Following the incubation, the medium was removed and 150 µL DMSO was added to dissolve the formed formazan crystals. After the formazan crystals were completely dissolved, the optical density (OD) was measured at 570 nm with an UV/Vis microplate spectrophotometer (Thermo Fisher Scientific, USA). All data are the results of at least three independent experiments carried out in triplicate. Data are presented as mean ± standard error of the mean (SEM) of samples. The IC50 value was calculated using the GraphPad Prism 8 (USA) program based on the calculated percent viability values and absorbance values. The percentage of viability was determined by Eq. (1):1 %Viablecells=absorbanceoftreatedcells-absorbanceofblank/absorbanceofcontrol-absorbanceofblank×100

[2] = test system: CCD-34Lu normal human lung fibroblast cells; experiment: MTT cytotoxicity on CCD-34Lu healthy cells; assay type: cell-based; details: Homo sapiens, Fibroblast, 48 h, mean ± standard deviation, n = 3, – = Not detected
Protocol: as §1, §2

[3] = test system: THP-1 derived macrophage cells; experiment: Macrophage polarization by flow cytometry (CD11b, CD80, CD163 MFI); assay type: cell-based, human; details: saponin 3 µg/mL, 24 h, PMA-differentiated THP-1, mean ± SD, n = 3
Protocol: To differentiate THP-1 cells into M0-THP-1, cells were seeded at an initial concentration of 1 × 10^6 cells/mL in 6-well plates (Corning, USA) and treated with 15 ng/mL phorbol 12-myristate 13—acetate (PMA, Sigma USA). Then incubate at 5% CO2, 37 °C for 48 h[24]. To evaluate the potential of saponins with/without infectious bronchitis virus (IBV) D274 antigen on macrophage polarization, THP-1 cells were treated with saponins at 3 µg/mL and then incubated for 24 h with or without 4 µL of inactivated IBV D274 antigens (final titer of 1 HA). […] Based on the results of our previous research, the saponin concentration was selected as a non-cytotoxic concentration. At the end of the incubation period, the cells were collected by trypsinization and washed three times with PBS. Following, 1 µL of PE anti-human CD80 (Biolegend, CA), FITC anti-human CD163 (Biolegend, CA), and FITC anti-human CD11b (Biolegend, CA) antibodies were added into the cells pellet and incubated for 45 min at room temperature in the dark. The cells pellets underwent two PBS washes following incubation. Finally, the cells were subsequently analyzed by flow cytometry (BD Accuri, C5). 1 × 10^4 cells were counted for each sample group using flow cytometry. All data are the results of at least three independent experiments carried out in triplicate. Data are presented as mean ± standard error of the mean (SEM) of samples. The untreated stained macrophage cells with anti-human CD80, FITC anti-human CD163, and FITC anti-human CD11b were compared with the results of treated cells to obtain from M0 polarization to M1 and M2 or both.
Figure 2 (a) Saponins without antigen treatment, (b) Saponins treated with antigen. THP-1 cells were treated with 15 ng/ml PMA and 3 µg/ml saponins and 1 HA titer of IBV D274 induced in the saponins with antigen group for 24 h incubation. The macrophage polarization was determined with flow cytometry. Each value represents the mean ± standard deviation of three independents measurements. (P < 0.05*, P < 0.01**, P < 0.001***).

[4] = test system: THP-1 originated-macrophage; experiment: MTT cytotoxicity on THP-1 originated macrophages; assay type: cell-based, human; details: Homo sapiens, THP-1, 48 h, mean ± standard deviation, n = 3, – = Not detected
[5] = test system: HeLa human cervical gland carcinoma cells; experiment: MTT cytotoxicity on HeLa; assay type: cell-based; details: Homo sapiens, HeLa, 48 h, mean ± standard deviation, n = 3, – = Not detected
Protocol: as §1, §2

[6] = test system: MDA-MB-231 human breast cancer cells; experiment: MTT cytotoxicity on MDA-MB-231; assay type: cell-based; details: Homo sapiens, MDA-MB-231, 48 h, mean ± standard deviation, n = 3, – = Not detected
Protocol: as §1, §2

[7] = test system: U87MG human malignant glioma cell line; experiment: MTT cytotoxicity on U87MG; assay type: cell-based; details: Homo sapiens, U-87 MG, 48 h, mean ± standard deviation, n = 3, – = Not detected
Protocol: as §1, §2

[8] = test system: A549 human lung adenocarcinoma cell line; experiment: MTT cytotoxicity on A549; assay type: cell-based; details: Homo sapiens, A549, 48 h, mean ± standard deviation, n = 3, – = Not detected
Protocol: as §1, §2

[9] = test system: PC-3 human prostate adenocarcinoma cells; experiment: MTT cytotoxicity on PC-3; assay type: cell-based; details: Homo sapiens, 48 h, mean ± standard deviation, n = 3, – = Not detected
Protocol: as §1, §2

[10] = with inactivated IBV D274 antigen (1 HA)

SMILES	IC50 [1] [µM]	IC50 [2] [µM]	MFI of CD 11b (M0 marker) [3, 10]	MFI of CD80 (M1 marker) [3, 10]	MFI of CD163 (M2 marker) [3, 10]	MFI of CD 11b (M0 marker) ([3]; without antigen)	MFI of CD80 (M1 marker) ([3]; without antigen)	MFI of CD163 (M2 marker) ([3]; without antigen)	IC50 [4] [µM]	IC50 [5] [µM]	IC50 [6] [µM]	IC50 [7] [µM]	IC50 [8] [µM]	IC50 [9] [µM]
C[C@@H]1O[C@@H](O[C@H]2[C@H](O[C@H]3CC[C@@]4(C)C(CC[C@]5(C)C4CC=C4C6CC(C)(C)CC[C@]6(C(=O)O[C@@H]6O[C@H](CO[C@@H]7O[C@H](CO)[C@@H](O)[C@H](O)[C@H]7O)[C@@H](O)[C@H](O)[C@H]6O)CC[C@]45C)[C@]3(C)CO)O[C@H](CO)[C@H](O)[C@@H]2O)[C@H](O)[C@H](O)[C@H]1O (stereo partly drawn) [Compound 4, 3-O-α-L-rhamnopyranosyl-(1 → 2)-β-D-galactopyranosyl-hederagenin-28-O-β-D-glucopyranosyl-(1 → 6)-β-D-glucopyranosyl ester]	> 45.2	> 45.2	32,925.30 ± 947.75	4593.32 ± 951.60	8203.00 ± 246.09**	27,324.70 ± 2398.39	4,380.00 ± 169.38	6,755.64 ± 206.67**	> 45.2	> 45.2	> 45.2	> 45.2	> 45.2	> 45.2
C[C@@H]1O[C@@H](O[C@H]2[C@H](O[C@H]3CC[C@@]4(C)C(CC[C@]5(C)C4CC=C4C6CC(C)(C)CC[C@]6(C(=O)O)CC[C@]45C)[C@]3(C)CO)O[C@H](CO)[C@H](O)[C@@H]2O)[C@H](O)[C@H](O)[C@H]1O (stereo partly drawn) [Compound 1, 3-O-α-L-rhamopyranosyl-(1 → 2)-β-D-galactopyranosyl-hederagenin]	> 64	> 64	31,644.21 ± 849.30	4062.43 ± 906.36		28,644.50 ± 849.33	4,536.00 ± 239.19	6,400.83 ± 196.02*	27.6 ± 0.52	48.1 ± 4.56	15.1 ± 1.02	> 64	8.59 ± 0.19	> 64

From PMC10560666, “Four new triterpene saponins from Cephalaria speciosa and their potent cytotoxic and immunomodulatory activities” (Scientific Reports, 2023)
